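Each compound was tested at five concentrations against cells in 96-well plates for 48 hours. GI50 = concentration required for 50% inhibition of growth.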 Activity calls are given as the source filed them. Rule as the data show it: active = GI50 up to about 1.1 µM and inactive = higher. Where a SMILES comes first, the peptide text is derived from it. The star is where a group is joined. Cbz = O=C(OCc1ccccc1)*; NHNH2 = NN*

What all share (test): NCI-60 cell line screen, 48 h
Experiment [1] concerns SNB-19.
Experiment [2] relates to NCI-H23.
The test system of experiment [3] is MOLT-4.
In experiment [4] the test system is OVCAR-8.
For experiment [5], the system named is K562.
The subject of experiment [6] is SR.
Experiment [7] concerns SNB-75.
Experiment [8] has as its system OVCAR-5.
For experiment [9], the system named is TK-10.
For experiment [10], the system named is IGROV-1.
Experiment [11] has as its system 786-0.
The test system of experiment [12] is HCC 2998.
The subject of experiment [13] is HCT-15.
Experiment [14] has as its system U-251.
The test system of experiment [15] is OVCAR-3.
Experiment [16] concerns SF-295.
Experiment [17] deals with NCI-H522.
Experiment [18] deals with NCI-H460.
Experiment [19] relates to NCI-H226.
In experiment [20] the test system is CAKI-1.

With `CCOC(O)(NC(=O)C(C(F)(F)F)C(F)(F)F)C(F)(F)F` (stereo unspecified), the GI50 in [1], in [2], in [3], in experiment [4], in [5] and in experiment [6] was > 100 µM (inactive) throughout. Further, the GI50 in experiment [7], in [8], in [9], in [10], in experiment [11] and in experiment [12] was > 100 µM (inactive) in each case. The GI50 was > 100 µM in experiment [13] and > 100 µM (inactive) in experiment [14].

Take `CCCCn1c(C)c(C(=O)CC)c(C(=O)NCCN2CCN(c3ccccc3Cl)CC2)c1C`: the GI50 in experiment [15] is 21.1 µM (inactive); in [1] it was 15.8 µM (inactive); in [2] it was 14.6 µM (inactive); in experiment [3], 18.7 µM (inactive); in [4], 17.3 µM (inactive); in experiment [5], 26.7 µM (inactive). Besides, the GI50 was 13.7 µM (inactive) in experiment [6]; 17.9 µM (inactive) in experiment [16]; 17.5 µM (inactive) in experiment [8]; 19.7 µM (inactive) in experiment [9]; 16.7 µM (inactive) in experiment [10]; 17.4 µM (inactive) in [17]. Besides, the GI50 was 15.3 µM (inactive) in experiment [18]; 16.1 µM (inactive) in experiment [11]; 20.3 µM (inactive) in [19]; 16.5 µM (inactive) in experiment [20]; 15.7 µM in experiment [13]; 16.6 µM (inactive) in [14].

Take `OC1(c2ccc(Cl)cc2)c2c(ccc3c2OCO3)C2=NCCN21` (stereo unspecified): the GI50 in [15] was 54.6 µM (inactive); in experiment [1], 73.6 µM (inactive); in [2], 63 µM (inactive); in experiment [3], 40.1 µM (inactive); in experiment [4], 67.5 µM (inactive); in experiment [5], 26.2 µM (inactive). Besides, the GI50 was 21.5 µM (inactive) in experiment [6]; 6.14 µM (inactive) in experiment [7]; 36.6 µM (inactive) in experiment [16]; 65.3 µM (inactive) in experiment [8]; 15 µM (inactive) in experiment [9]; 20.5 µM (inactive) in experiment [10]. Moreover, the GI50 in experiment [18] was 40.6 µM (inactive); in experiment [11], 62.2 µM (inactive); in experiment [20] it was 46.9 µM (inactive); in [13], 52.7 µM; in [14] it was 44.9 µM (inactive).

With `NNC(=O)c1ccc(OCc2nc3ccccc3[nH]2)cc1`, the GI50 in experiment [15] was 43.5 µM (inactive); in [1] it was > 100 µM (inactive); in experiment [2] it was > 100 µM (inactive); in experiment [3] it was 14.8 µM (inactive); in [4], > 100 µM (inactive); in experiment [5], 39.5 µM (inactive). In addition, the GI50 is 25.2 µM (inactive) in experiment [6]; > 100 µM (inactive) in experiment [16]; > 100 µM (inactive) in [8]; > 100 µM (inactive) in experiment [9]; > 100 µM (inactive) in [10]; 30 µM (inactive) in [17]. In addition, the GI50 in experiment [18] is 31.8 µM (inactive); in [11] it was > 100 µM (inactive); in experiment [19], > 100 µM (inactive); in experiment [20] it was > 100 µM (inactive); in experiment [13], > 100 µM; in experiment [14], > 100 µM (inactive).

For `CCOC(=O)CCC(NC(=O)OCc1ccccc1)C(=O)NC(CCC(=O)OCC)C(=O)NN` (stereo unspecified) (Cbz-Glu(OEt)-Glu(OEt)-NHNH2; configuration not given here), the GI50 in experiment [1], in [3], in experiment [4], in experiment [5], in experiment [6] and in [7] was > 100 µM (inactive) in each case. Moreover, the GI50 in experiment [8], in experiment [9], in [10], in experiment [18], in experiment [11] and in experiment [19] was > 100 µM (inactive) in each case. Besides, the figures for the GI50 in experiment [12], in experiment [13] and in [14] were > 100 µM (inactive), > 100 µM and > 100 µM (inactive), respectively.

In the case of `COc1cc(/C=N/N=C(\N)NO)cc(OC)c1OC`, the GI50 in experiment [15] was 21.9 µM (inactive); in experiment [1], > 100 µM (inactive); in [2] it was 38.2 µM (inactive); in [3], 40.6 µM (inactive); in [4], 18.5 µM (inactive); in experiment [5], 21.6 µM (inactive). Also, the GI50 in experiment [6] is 24.5 µM (inactive); in experiment [16] it was 25.2 µM (inactive); in experiment [8] it was 49.5 µM (inactive); in experiment [9], > 100 µM (inactive); in experiment [10], 42.7 µM (inactive); in [17] it was 34.8 µM (inactive). The GI50 in experiment [18] is 28.2 µM (inactive); in [11], 15.4 µM (inactive); in experiment [19], 20.5 µM (inactive); in [12], 36.6 µM (inactive); in [20], 72.4 µM (inactive); in experiment [13] it was 28.6 µM. The GI50 in experiment [14] was 52.2 µM (inactive).

Regarding `COc1ccc2c(=O)c(C)c(-c3ccccc3)oc2c1CN(C)C` [DIMEFLINE], the GI50 in [1], in experiment [2], in experiment [3], in experiment [4], in [5] and in experiment [6] was > 100 µM (inactive) each time. The GI50 in experiment [16] was > 100 µM (inactive); in experiment [8] it was 65.5 µM (inactive); in [9], > 100 µM (inactive); in experiment [10] it was > 100 µM (inactive); in experiment [17] it was > 100 µM (inactive); in experiment [18], > 100 µM (inactive). Besides, the GI50 in [11], in experiment [19], in experiment [12] and in [20] was > 100 µM (inactive) each time.

Turning to `Cn1nc(-c2ccc(S(=O)(=O)N/C(=N/c3ccc(Cl)cc3)NN)s2)cc1C(F)(F)F`, the GI50 in [15] was 19.7 µM (inactive); in [1] it was 16.5 µM (inactive); in experiment [2], 20.3 µM (inactive); in experiment [3], 4.06 µM (inactive); in experiment [4], 19.6 µM (inactive); in experiment [5], 14.1 µM (inactive). Also, the GI50 in [6] was 17.4 µM (inactive); in experiment [7] it was 16.3 µM (inactive); in experiment [16], 16.2 µM (inactive); in experiment [8], 15.9 µM (inactive); in experiment [9], 19.1 µM (inactive); in [10], 19.3 µM (inactive). Moreover, the GI50 in experiment [18] is 19.9 µM (inactive); in experiment [11], 14.9 µM (inactive); in experiment [19], 13.4 µM (inactive); in [20], 18.7 µM (inactive); in experiment [13], 21.8 µM; in experiment [14], 14.6 µM (inactive).

Turning to `COc1ccc(C2NC(N)=C(C#N)C3=C2C(C)CCC3)cc1OC` (stereo unspecified), the GI50 in [15] was 31.7 µM (inactive); in [1], > 100 µM (inactive); in [2], > 100 µM (inactive); in experiment [3], 2.75 µM (inactive); in [4], 75.7 µM (inactive); in [5], 25.6 µM (inactive). The GI50 in experiment [6] was 0.261 µM (active); in experiment [7], 1.44 µM (inactive); in [16], 12.3 µM (inactive); in experiment [8], > 100 µM (inactive); in experiment [9], 92.3 µM (inactive); in experiment [10], 15.5 µM (inactive). In addition, the GI50 in experiment [11] is 77.1 µM (inactive); in experiment [19], > 100 µM (inactive); in experiment [20] it was > 100 µM (inactive); in experiment [13], 44.3 µM; in experiment [14] it was 41.8 µM (inactive).

Regarding `CCCCNC(=O)Nc1c(C(N)=O)c2n(c1C(=O)OCC)CCCCC2`, the GI50 in experiment [1] was > 100 µM (inactive); in experiment [2], > 100 µM (inactive); in experiment [3], > 100 µM (inactive); in experiment [4], > 100 µM (inactive); in experiment [5], > 100 µM (inactive); in experiment [6] it was 75.9 µM (inactive). Also, the GI50 in [7], in experiment [16], in experiment [9], in experiment [10], in experiment [18] and in [11] was > 100 µM (inactive) throughout. Also, the GI50 was 3.89 µM (inactive) in experiment [19]; > 100 µM (inactive) in experiment [12]; > 100 µM (inactive) in [20]; > 100 µM in experiment [13]; > 100 µM (inactive) in [14].

As to `O=C1NN=C2C=C(c3ccc(Cl)cc3)CC(c3cccc(Cl)c3)C12` (stereo unspecified), the GI50 in experiment [15] was 29.5 µM (inactive); in experiment [1], 15.1 µM (inactive); in [2], 32.2 µM (inactive); in experiment [3], 17.9 µM (inactive); in [4] it was 45.4 µM (inactive); in [5], 17.1 µM (inactive). Also, the GI50 is 18.2 µM (inactive) in [6]; 18.7 µM (inactive) in experiment [16]; 26.5 µM (inactive) in [8]; 20.1 µM (inactive) in [9]; 19.6 µM (inactive) in experiment [10]; 15.8 µM (inactive) in experiment [17]. Besides, the GI50 in [18] was 19 µM (inactive); in experiment [11], 21.4 µM (inactive); in experiment [19], 20.4 µM (inactive); in [12] it was 17.1 µM (inactive); in experiment [20], 34.8 µM (inactive); in experiment [13], 13.9 µM. For the same molecule, the GI50 in experiment [14] is 18.9 µM (inactive).

`COc1ccc(C2=C(OC(=O)N(C)C)c3cccn3-c3cc(Cl)ccc3S2)cc1`: the GI50 in experiment [2] was > 10 µM (inactive); in experiment [3], 7.89 µM (inactive); in experiment [4] it was > 10 µM (inactive); in experiment [5], 8.91 µM (inactive); in experiment [6] it was 6.38 µM (inactive); in experiment [7] it was > 10 µM (inactive). The GI50 in experiment [16], in [9], in [10], in experiment [11], in experiment [12] and in experiment [20] was > 10 µM (inactive) each time. The GI50 in experiment [13] was > 10 µM.

The record behind these values is ChEMBL document CHEMBL1201862, “PubChem BioAssay data set” (2004).
